According to US9955689B2, “Method for promoting plant growth” (SUMITOMO CHEMICAL COMPANY, LIMITED, priority 2012, dated 2018):

What follows are molecules tested on Nicotiana benthamiana (assay: Test Example 6: growth promotion under low-temperature stress by hydroponics of Nicotiana benthamiana (0.1 ppm)). Conditions: compound at 0.1 ppm, 7 days at 1.5±1.0° C. low-temperature stress, then 3 days at 22° C., 5 or greater = growth promotion effect, read-out: value of a relative leaf area (Equation (1), area of green leaf).
Type: in vivo
Procedure: Test Example 6. Test for Evaluating Growth Promotion Under Low-Temperature Stress by Hydroponics of Nicotiana benthamiana
(§1) (Cultivation and Compound Treatment)
A DMSO solution, which contained one of the compounds 2, 3, 7, 11 to 13, 20, 23, 24, 30, 38, 39, 41 to 43, 46, 50, 64, 68, 80, 82, 88, 93, 94, 96, 104, 107, and 112 of the present invention at a concentration of […], was prepared. The DMSO solution of the compound of the present invention was added at a volume ratio of 1/1,000 to the Murashige⋅Scoog medium of a ½-fold concentration (a medium containing 2.3 g of mixed salts (manufactured by Wako Pure Chemical Industries, Ltd.), 200 mg of Myo-inositol (manufactured by Sigme-Aldrich Co. LLC.), 2 mg of niconitic acid (manufactured by Wako Pure Chemical Industries, Ltd.), 2 mg of pyridoxine hydrochloride (manufactured by Wako Pure Chemical Industries, Ltd.), 20 mg of thiamine hydrochloride (manufactured by Wako Pure Chemical Industries, Ltd.), 20 g of sucrose (manufactured by Wako Pure Chemical Industries, Ltd.), and 1 g of […] (manufactured by DOJINDO LABORATORIES) respectively per 1 L of water and having pH adjusted to 5.8), thereby preparing a medium containing the compound of the present invention at a concentration of 0.1 ppm.
(§2) Seeds of Nicotiana benthamiana were seeded in the 5 μL of the medium and cultured overnight at 22° C. Thereafter, 45 μL of the medium containing the compound of the present invention at a concentration of 0.1 ppm was added thereto, and the seeds are cultured for 7 days at 22° C. under the conditions of an illuminance of 4,000 lux, and a day length of 16 hours, and the seedlings raised from the Nicotiana benthamiana were treated with the compound. Moreover, instead of the above medium a test plot, which was obtained by performing the same treatment by using a medium prepared by adding DMSO to the Murashige′Scoog medium of ½-fold concentration at a volume ratio of 1/1,000, was used as a control plot not treated with the compound.
(§3) (Low-Temperature Stress Treatment)
(§4) The seedlings of the Nicotiana benthamiana treated with the compound were subjected to low-temperature treatment by being cultured for 7 days at 1.5±1.0° C., under the conditions of an illuminance of 2,000 lux, and a day length of 16 hours.
The seedlings of the Nicotiana benthamiana having undergone the low-temperature stress treatment were cultured for 3 days at 22° C., under the conditions of an illuminance of 4,000 lux, and a day length of 16 hours. Thereafter, the area of green leaf was quantified by Scanalyzer HTS (manufactured by LemnaTec GmbH). Moreover, the value of the control plot not treated with the compound that had not yet been subjected to the low-temperature stress treatment was measured in the same manner. A value of a relative leaf area was calculated based on the following equation (1), and if the relative value of leaf area was 5 or greater, the compound was evaluated to have a growth promotion effect. As a result of the evaluation, it was confirmed that when the plant was treated with one of the compounds 2, 3, 7, 11 to 13, 20, 23, 24, 30, 38, 39, 41 to 43, 46, 50, 64, 68, 80, 82, 88, 93, 94, 96, 104, 107, and 112 of the present invention at 0.1 ppm, the value of a relative leaf area was 5 or greater, compared to the area of green leaf of the control plot not treated with compound. Accordingly, it was confirmed that the treatment using the compound of the present invention improve a growth promotion effect. Relative leaf area=100*(a green area of a plot treated with the compound of the present invention minus(−) a green area of a plot not treated with the compound of the present invention)/(a green area of a control plot not treated with the compound of the present invention that had not yet been subjected to low-temperature stress treatment minus(−) green area of a control plot not treated with the compound of the present invention) Equation (1): […]

SMILES | relative green leaf area at 0.1 ppm [%]
O=C(O)c1cc2cc(-c3ccc(Cl)cc3)ccc2s1 [Present compound 39, 5-(4-chlorophenyl)benzo[b]thiophene-2-carboxylic acid] | ≥ 5
O=C(O)c1cc2cc(-c3ccncc3)ccc2s1 [Present compound 46, 5-(4-pyridyl)benzo[b]thiophene-2-carboxylic acid] | ≥ 5
O=C(O)c1cc2cc(-c3cccs3)ccc2s1 [Present compound 50, 5-(2-thienyl)benzo[b]thiophene-2-carboxylic acid] | ≥ 5
CN(C)c1cccc2sc(C(=O)O)cc12 [Present compound 64, 4-(dimethylamino)benzo[b]thiophene-2-carboxylic acid] | ≥ 5
O=C(O)c1sc2ccccc2c1O [Present compound 80, 3-hydroxybenzo[b]thiophene-2-carboxylic acid] | ≥ 5
COc1ccc2sc(C(=O)O)cc2c1 [Present compound 82, 5-methoxybenzo[b]thiophene-2-carboxylic acid] | ≥ 5
O=C(O)c1sc2ccccc2c1OCc1ccccc1 [Present compound 88, 3-benzyloxybenzo[b]thiophene-2-carboxylic acid] | ≥ 5
Cc1ccccc1Oc1cccc2cc(C(=O)O)sc12 [Present compound 94, 7-(2-methylphenoxy)benzo[b]thiophene-2-carboxylic acid] | ≥ 5
O=C(O)c1cc2cccc(Oc3ccc(OC(F)(F)F)cc3)c2s1 [Present compound 96] | ≥ 5
O=C(O)c1cc2cc(C(F)(F)F)cc(Cl)c2s1 [Present compound 104, 7-chloro-5-trifluoromethylbenzo[b]thiophene-2-carboxylic acid] | ≥ 5
O=C(O)c1sc2ccc(C(F)(F)F)cc2c1C(F)(F)F [Present compound 107, 3,5-bis(trifluoromethyl)benzo[b]thiophene-2-carboxylic acid] | ≥ 5
COc1c(C(=O)O)sc2ccc(C(F)(F)F)cc12 [Present compound 112, 3-methoxy-5-trifluoromethylbenzo[b]thiophene-2-carboxylic acid] | ≥ 5

The molecules below were run on Corn (Variety: Pioneer 31P41) (assay: Test Example 8: growth promotion under low-temperature stress by corn seed treatment). Conditions: corn seed treatment: compound 21 0.5 g, compound 55 0.5 g, 5 g or 50 g per 100 kg corn seeds; 4 days at 2.5±1° C., then 4 days at 27° C.
Type: in vivo
Procedure: Test Example 8. Test for Evaluating Growth Promotion Under Low-Temperature Stress by Corn Seed Treatment
Corn (Variety: Pioneer 31P41 (Manufactured by Pioneer Hi-Bred Japan)
A blank slurry solution containing 10% (V/V) color coat red (Becker Underwood, Inc.), 10% (V/V) CF-Clear (Becker Underwood, Inc.), and 1.66% Maxim4FS (Syngenta) was prepared. The compound 21 of the present invention was dissolved in the blank slurry such that 0.5 g of the compound was used for treatment per 100 kg corn seeds, and the compound 55 of the present invention was dissolved in the blank slurry such that 0.5 g, 5 g or 50 g of the compound was used for treatment per 100 kg corn seeds respectively, thereby preparing a slurry solution.
Zero point three five (0.35) ml of the slurry solution per 14.4 g of the seeds was put into a 50 ml centrifugal settling tube (manufactured by Becton, Dickinson and Company, Japan), and the slurry solution was stirred until it dries, thereby coating the seeds. Moreover, the seeds coated with the blank slurry were used as seeds for an untreated control plot. […]
After low-temperature stress treatment was performed, the seeds were cultured for 4 days at 27° C., under the conditions of an illuminance of 5,000 lux, and a day length of 16 hours. Thereafter, a fresh weight of the aerial part in plant was measured, and an average weight of each individual was determined. […]

SMILES | fresh weight of the aerial part compared with the untreated control plot
Cc1ccc2sc(C(=O)O)cc2c1 [Present compound 21] | larger
O=C(O)c1sc2ccccc2c1C(=O)O [Present compound 55, benzo[b]thiophene-2,3-dicarboxylic acid] | larger

The molecules below were run on Nicotiana benthamiana (assay: Test Example 5: growth promotion under low-temperature stress by hydroponics of Nicotiana benthamiana (1 ppm)). Conditions: compound at 1 ppm, 7 days at 1.5±1.0° C. low-temperature stress, then 3 days at 22° C., 5 or greater = growth promotion effect, read-out: value of a relative leaf area (Equation (1), area of green leaf).
Type: in vivo
Procedure: Test Example 5. Test for Evaluating Growth Promotion Under Low-Temperature Stress by Hydroponics of Nicotiana benthamiana
as §1
A DMSO solution, which contained one of the compounds 9, 10, 15, 16, 27 to 29, 31 to 37, 40, 44, 47, 48, 52, 55, 56, 58, 61, 63, 81, 87, 89, 92, 95, 98, 100, 102, 105, 108, 109, 111, 113, and 115 of the present invention at a concentration of 1,000 ppm, was prepared. The DMSO solution of the compound of the present invention was added at a volume ratio of 1/1,000 to the Murashige-Scoog medium of a ½-fold concentration (a medium containing 2.3 g of mixed salts (manufactured by Wako Pure Chemical Industries, Ltd.), 200 mg of Myo-inositol (manufactured by Sigme-Aldrich Co. LLC.), 2 mg of niconitic acid (manufactured by Wako Pure Chemical. Industries, Ltd.), 2 mg of pyridoxine hydrochloride (manufactured by Wako Pure Chemical Industries, Ltd.), 20 mg of thiamine hydrochloride (manufactured by Wako Pure Chemical Industries, Ltd.), 20 g of sucrose (manufactured by Wako Pure Chemical Industries, Ltd.), and 1 g of MES (manufactured by DOJINDO LABORATORIES) respectively per 1 L of water and having pH adjusted to 5.8), thereby preparing a medium containing the compound of the present invention at a concentration of 1 ppm.
as §2, with “1” for “0.1”, “Murashige⋅Scoog” for “Murashige′Scoog”
as §3, §4
The seedlings of the Nicotiana benthamiana having undergone the low-temperature stress treatment were cultured for 3 days at 22° C. under the conditions of an illuminance of 4,000 lux, and a day length of 16 hours. Thereafter, the area of green leaf was quantified by Scanalyzer HTS (manufactured by LemnaTec GmbH). Moreover, the value of the control plot not treated with the compound that had not yet been subjected to the low-temperature stress treatment was measured in the same manner. A value of a relative leaf area was calculated based on the following equation (1), and if the relative value of leaf area was 5 or greater, the compound was evaluated to have a growth promotion effect. As a result of the evaluation, it was confirmed that when the plant was treated with one of the compounds 9, 10, 15, 16, 27 to 29, 31 to 37, 40, 44, 47, 48, 52, 55, 56, 58, 61, 63, 81, 87, 89, 92, 95, 98, 100, 102, 105, 108, 109, 111, 113, and 115 of the present invention at 1 ppm, the value of a relative leaf area was 5 or greater, compared to the area of green leaf of the control plot not treated with compound. Accordingly, it was confirmed that the treatment using the compound of the present invention improve a growth promotion effect. Relative leaf area=100*(a green area of a plot treated with the compound of the present invention minus(−) a green area of a plot not treated with the compound of the present invention)/(a green area of a control plot not treated with the compound of the present invention that had not yet been subjected to low-temperature stress treatment minus(−) a green area of a control plot not treated with the compound of the present invention) Equation (1): […]

SMILES | relative leaf area at 1 ppm [%]
O=C(O)c1sc2ccccc2c1C(=O)O [Present compound 55, benzo[b]thiophene-2,3-dicarboxylic acid] | ≥ 5
